According to patent publication US20100029657A1, “Bridged, Bicyclic Heterocyclic or Spiro Bicyclic Heterocyclic Derivatives of Pyrazolo[1, 5-A]Pyrimidines, Methods for Preparation and Uses Thereof” (Wyeth, priority 2008, published 2010):

Target: T1, Flag/GST-tagged recombinant human B-Raf (Homo sapiens, UniProt P15056)
T1 construct: Flag; GST; made in house; host or cells: Sf9 insect cells (B-Raf); E. coli (MEK1-GST)
Assay: B-Raf kinase assay (phosphorylation of GST-MEK1, phospho-MEK1 antibody/Europium detection)
Assay type: biochemical
Conditions: B-Raf IC50 Data for compounds of Formula A; read-out: Mean IC50
Method in brief: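 Percent inhibition was calculated at each compound concentration from Europium time-resolved fluorescence (anti-phospho-MEK1, then Eu-conjugated anti-rabbit) after GST capture. The upstream kinase step used GST-MEK1 with 0.2 nM B-Raf for 45 min at room temperature in MOPS buffer, pH 7.2. It was started with a cocktail of 200 μM ATP and 40 mM MgCl2.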

T1 sequence (P15056 whole entry): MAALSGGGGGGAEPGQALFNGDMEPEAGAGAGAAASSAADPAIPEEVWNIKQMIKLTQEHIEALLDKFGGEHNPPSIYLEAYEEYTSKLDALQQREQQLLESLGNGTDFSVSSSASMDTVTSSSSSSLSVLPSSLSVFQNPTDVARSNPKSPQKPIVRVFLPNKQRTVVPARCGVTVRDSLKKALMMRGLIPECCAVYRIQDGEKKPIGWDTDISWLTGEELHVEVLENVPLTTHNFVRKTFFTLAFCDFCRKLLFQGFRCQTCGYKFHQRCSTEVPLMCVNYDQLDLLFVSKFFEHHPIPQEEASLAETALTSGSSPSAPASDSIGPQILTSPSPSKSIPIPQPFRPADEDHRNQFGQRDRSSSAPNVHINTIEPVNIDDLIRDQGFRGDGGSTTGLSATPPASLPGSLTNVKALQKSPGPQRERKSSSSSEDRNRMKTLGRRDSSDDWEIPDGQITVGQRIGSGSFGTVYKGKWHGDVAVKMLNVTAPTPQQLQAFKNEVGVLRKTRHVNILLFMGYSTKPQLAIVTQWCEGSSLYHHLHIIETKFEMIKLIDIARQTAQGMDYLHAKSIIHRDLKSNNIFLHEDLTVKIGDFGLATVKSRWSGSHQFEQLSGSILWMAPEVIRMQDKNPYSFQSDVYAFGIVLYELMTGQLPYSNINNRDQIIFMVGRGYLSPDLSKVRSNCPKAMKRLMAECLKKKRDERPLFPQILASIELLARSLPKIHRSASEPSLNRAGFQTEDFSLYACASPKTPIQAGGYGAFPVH

Compound | IC50 [nM]
CN1C[C@@H]2C[C@H]1CN2c1ccc(-c2ccnc3c(-c4cccc5[nH]ncc45)c(-c4ccncc4)nn23)cc1F [Example 188, 7-{3-fluoro-4-[(1S,4S)-5-methyl-2,5-diazabicyclo[2.2.1]hept-2-yl]phenyl}-3-(1H-indazol-4-yl)-2-pyridin-4-ylpyrazolo[1,5-a]pyrimidine] | 1.9
CN1C[C@@H]2C[C@H]1CN2c1ccc(-c2ccnc3c(-c4cccc5[nH]ncc45)c(-c4ccncc4)nn23)c(C(F)(F)F)c1 [Example 189, 3-(1H-indazol-4-yl)-7-{4-[(1S,4S)-5-methyl-2,5-diazabicyclo[2.2.1]hept-2-yl]-2-(trifluoromethyl)phenyl}-2-pyridin-4-ylpyrazolo[1,5-a]pyrimidine] | 1.4
CN1C[C@@H]2C[C@H]1CN2c1ccc(-c2ccnc3c(-c4cccc5[nH]ncc45)c(-c4ccncc4)nn23)c(Br)c1 [Example 190, 7-{2-bromo-4-[(1S,4S)-5-methyl-2,5-diazabicyclo[2.2.1]hept-2-yl]phenyl}-3-(1H-indazol-4-yl)-2-pyridin-4-ylpyrazolo[1,5-a]pyrimidine] | < 0.3
C1=C(c2ccnc3c(-c4cccc5[nH]ncc45)c(-c4ccncc4)nn23)CCC2(C1)OCCO2 [Example 191, 7-(1,4-dioxaspiro[4.5]dec-7-en-8-yl)-3-(1H-indazol-4-yl)-2-pyridin-4-ylpyrazolo[1,5-a]pyrimidine] | 56.1
C[N+]1([O-])C[C@@H]2C[C@H]1CN2c1cc(F)c(-c2ccnc3c(-c4cccc5[nH]ncc45)c(-c4ccncc4)nn23)c(F)c1 (stereo partly drawn) [Example 192, 7-{2,6-difluoro-4-[(1S,4S)-5-methyl-5-oxido-2,5-diazabicyclo[2.2.1]hept-2-yl]phenyl}-3-(1H-indazol-4-yl)-2-pyridin-4-ylpyrazolo[1,5-a]pyrimidine] | 0.4
c1cc(-c2c(-c3ccncc3)nn3c(-c4coc(CN5C[C@@H]6C[C@H]5CO6)c4)ccnc23)c2cn[nH]c2c1 [Example 193, 3-(1H-indazol-4-yl)-7-{5-[(1S,4S)-2-oxa-5-azabicyclo[2.2.1]hept-5-ylmethyl]furan-3-yl}-2-pyridin-4-ylpyrazolo[1,5-a]pyrimidine] | 18.8
CC(C)(C)OC(=O)N1C[C@@H]2C[C@H]1CN2Cc1cc(-c2ccnc3c(-c4cccc5[nH]ncc45)c(-c4ccncc4)nn23)co1 [Example 194, tert-butyl (1S,4S)-5-({4-[3-(1H-indazol-4-yl)-2-pyridin-4-ylpyrazolo[1,5-a]pyrimidin-7-yl]furan-2-yl}methyl)-2,5-diazabicyclo[2.2.1]heptane-2-carboxylate] | 9.1
CCOC(=O)N1[C@@H]2CC[C@H]1C[C@@H](c1c(C)cnc3c(-c4cccc5[nH]ncc45)c(-c4ccncc4)nn13)C2 [Example 199, ethyl (3-endo)-3-[3-(1H-indazol-4-yl)-6-methyl-2-pyridin-4-ylpyrazolo[1,5-a]pyrimidin-7-yl]-8-azabicyclo[3.2.1]octane-8-carboxylate] | 5.5
c1cc(-c2c(-c3ccncc3)nn3c(-c4ccc(N5CC6CCC(C5)O6)nc4)ccnc23)c2cn[nH]c2c1 [Example 200, 3-(1H-indazol-4-yl)-7-[6-(8-oxa-3-azabicyclo[3.2.1]oct-3-yl)pyridin-3-yl]-2-pyridin-4-ylpyrazolo[1,5-a]pyrimidine] | 5.8
c1cc(-c2c(-c3ccncc3)nn3c(-c4ccc(N5C[C@@H]6C[C@H]5CO6)nc4)ccnc23)c2cn[nH]c2c1 [Example 201, 3-(1H-indazol-4-yl)-7-{6-[(1S,4S)-2-oxa-5-azabicyclo[2.2.1]hept-5-yl]pyridin-3-yl}-2-pyridin-4-ylpyrazolo[1,5-a]pyrimidine] | 8.4
CC(C)(C)OC(=O)N1C[C@@H]2C[C@H]1CN2Cc1cccc(-c2ccnc3c(-c4cccc5[nH]ncc45)c(-c4ccncc4)nn23)c1 [Example 202, tert-butyl (1S,4S)-5-{3-[3-(1H-indazol-4-yl)-2-pyridin-4-ylpyrazolo[1,5-a]pyrimidin-7-yl]benzyl}-2,5-diazabicyclo[2.2.1]heptane-2-carboxylate] | > 100
CC(C)(C)OC(=O)N1C[C@@H]2C[C@H]1CN2Cc1ccc(-c2ccnc3c(-c4cccc5[nH]ncc45)c(-c4ccncc4)nn23)cc1 [Example 203, tert-butyl (1S,4S)-5-{4-[3-(1H-indazol-4-yl)-2-pyridin-4-ylpyrazolo[1,5-a]pyrimidin-7-yl]benzyl}-2,5-diazabicyclo[2.2.1]heptane-2-carboxylate] | 12
Fc1cc(CN2C[C@@H]3C[C@H]2CO3)ccc1-c1ccnc2c(-c3cccc4[nH]ncc34)c(-c3ccncc3)nn12 [Example 206, 7-{2-fluoro-4-[(1S,4S)-2-oxa-5-azabicyclo[2.2.1]hept-5-ylmethyl]phenyl}-3-(1H-indazol-4-yl)-2-pyridin-4-ylpyrazolo[1,5-a]pyrimidine] | 1.5
Fc1cc(CN2C[C@H]3C[C@@H]2CO3)ccc1-c1ccnc2c(-c3cccc4[nH]ncc34)c(-c3ccncc3)nn12 [Example 207, 7-{2-fluoro-4-[(1R,4R)-2-oxa-5-azabicyclo[2.2.1]hept-5-ylmethyl]phenyl}-3-(1H-indazol-4-yl)-2-pyridin-4-ylpyrazolo[1,5-a]pyrimidine] | 0.5
Fc1cc(CN2C3COCC2COC3)ccc1-c1ccnc2c(-c3cccc4[nH]ncc34)c(-c3ccncc3)nn12 [Example 210, 9-{3-fluoro-4-[3-(1H-indazol-4-yl)-2-pyridin-4-ylpyrazolo[1,5-a]pyrimidin-7-yl]benzyl}-3,7-dioxa-9-azabicyclo[3.3.1]nonane] | 0.7
Ethyl 3-[3-(2-oxo-2,3-dihydro-1H-pyrrolo[2,3-b]pyridin-4-yl)-2-pyridin-4-ylpyrazolo[1,5-a]pyrimidin-7-yl-8-azabicyclo[3.2.1]octane-8-carboxylate [Example 86] | 270

The remaining lines, values ahead:

IC50 [nM] | Compound
1.7 | Fc1cc(-c2ccnc3c(-c4cccc5[nH]ncc45)c(-c4ccncc4)nn23)ccc1N1C[C@@H]2C[C@H]1CN2 [Example 185, 7-{4-[(1S,4S)-2,5-diazabicyclo[2.2.1]hept-2-yl]-3-fluorophenyl}-3-(1H-indazol-4-yl)-2-pyridin-4-ylpyrazolo[1,5-a]pyrimidine]
1.1 | FC(F)(F)c1cc(N2C[C@@H]3C[C@H]2CN3)ccc1-c1ccnc2c(-c3cccc4[nH]ncc34)c(-c3ccncc3)nn12 [Example 186, 7-{4-[(1S,4S)-2,5-diazabicyclo[2.2.1]hept-2-yl]-2-(trifluoromethyl)phenyl}-3-(1H-indazol-4-yl)-2-pyridin-4-ylpyrazolo[1,5-a]pyrimidine]
< 0.3 | Brc1cc(N2C[C@@H]3C[C@H]2CN3)ccc1-c1ccnc2c(-c3cccc4[nH]ncc34)c(-c3ccncc3)nn12 [Example 187, 7-{2-bromo-4-[(1S,4S)-2,5-diazabicyclo[2.2.1]hept-2-yl]phenyl}-3-(1H-indazol-4-yl)-2-pyridin-4-ylpyrazolo[1,5-a]pyrimidine]
13 | c1cc(-c2c(-c3ccncc3)nn3c(-c4coc(CN5C[C@@H]6C[C@H]5CN6)c4)ccnc23)c2cn[nH]c2c1 [Example 195, 7-{5-[(1S,4S)-2,5-diazabicyclo[2.2.1]hept-2-ylmethyl]furan-3-yl}-3-(1H-indazol-4-yl)-2-pyridin-4-ylpyrazolo[1,5-a]pyrimidine]
11.5 | CC(C)(C)OC(=O)N1C[C@@H]2C[C@H]1CN2Cc1ccc(-c2ccnc3c(-c4cccc5[nH]ncc45)c(-c4ccncc4)nn23)s1 [Example 196, tert-butyl (1S,4S)-5-({5-[3-(1H-indazol-4-yl)-2-pyridin-4-ylpyrazolo[1,5-a]pyrimidin-7-yl]thiophen-2-yl}methyl)-2,5-diazabicyclo[2.2.1]heptane-2-carboxylate]
5.7 | c1cc(-c2c(-c3ccncc3)nn3c(-c4ccc(CN5C[C@@H]6C[C@H]5CO6)s4)ccnc23)c2cn[nH]c2c1 [Example 197, 3-(1H-indazol-4-yl)-7-{5-[(1S,4S)-2-oxa-5-azabicyclo[2.2.1]hept-5-ylmethyl]thiophen-2-yl}-2-pyridin-4-ylpyrazolo[1,5-a]pyrimidine]
3.6 | c1cc(-c2c(-c3ccncc3)nn3c(-c4ccc(CN5C[C@@H]6C[C@H]5CN6)s4)ccnc23)c2cn[nH]c2c1 [Example 198, 7-{5-[(1S,4S)-2,5-diazabicyclo[2.2.1]hept-2-ylmethyl]thiophen-2-yl}-3-(1H-indazol-4-yl)-2-pyridin-4-ylpyrazolo[1,5-a]pyrimidine]
10 | c1cc(-c2c(-c3ccncc3)nn3c(-c4ccc(CN5C[C@@H]6C[C@H]5CO6)cc4)ccnc23)c2cn[nH]c2c1 [Example 204, 3-(1H-indazol-4-yl)-7-{4-[(1S,4S)-2-oxa-5-azabicyclo[2.2.1]hept-5-ylmethyl]phenyl}-2-pyridin-4-ylpyrazolo[1,5-a]pyrimidine]
0.35 | Fc1cc(CN2C[C@@H]3C[C@H]2CN3)ccc1-c1ccnc2c(-c3cccc4[nH]ncc34)c(-c3ccncc3)nn12 [Example 205, 7-{4-[(1S,4S)-2,5-diazabicyclo[2.2.1]hept-2-ylmethyl]-2-fluorophenyl}-3-(1H-indazol-4-yl)-2-pyridin-4-ylpyrazolo[1,5-a]pyrimidine]
42 | c1cc(CN2C[C@@H]3C[C@H]2CN3)cc(-c2ccnc3c(-c4cccc5[nH]ncc45)c(-c4ccncc4)nn23)c1 [Example 208, 7-{3-[(1S,4S)-2,5-diazabicyclo[2.2.1]hept-2-ylmethyl]phenyl}-3-(1H-indazol-4-yl)-2-pyridin-4-ylpyrazolo[1,5-a]pyrimidine]
0.6 | c1cc(-c2c(-c3ccncc3)nn3c(-c4ccc(CN5C[C@@H]6C[C@H]5CN6)cc4)ccnc23)c2cn[nH]c2c1 [Example 209, 7-{4-[(1S,4S)-2,5-diazabicyclo[2.2.1]hept-2-ylmethyl]phenyl}-3-(1H-indazol-4-yl)-2-pyridin-4-ylpyrazolo[1,5-a]pyrimidine]
